According to the NIST ThermoML archive (doi:10.1016/j.jct.2017.06.002):

Assay: xn = mol fraction of the nth substance listed
Conditions: 100 kPa, Liquid; for viscosity: Concentric cylinders viscometry; for mass density: Vibrating tube method

COCOCOCOCOC [2,4,6,8,10-pentaoxaundecane] + COCOCOC
Conditions	mass density [kg/m3]	viscosity [mPa·s]
288.15 K, x2 = 0	1078.8	2.207
288.15 K, x2 = 0.12	1069.8	1.99
288.15 K, x2 = 0.24	1061.6	1.788
288.15 K, x2 = 0.35	1053.5	1.608
288.15 K, x2 = 0.45	1045.4	1.449
288.15 K, x2 = 0.55	1037.2	1.318
288.15 K, x2 = 0.65	1029	1.209
288.15 K, x2 = 0.74	1021	1.119
288.15 K, x2 = 0.83	1013.2	1.043
288.15 K, x2 = 0.92	1005.8	0.977
293.15 K, x2 = 0	1073.3	2.015
293.15 K, x2 = 0.12	1064.6	1.835
293.15 K, x2 = 0.24	1056.5	1.669
293.15 K, x2 = 0.35	1048.6	1.518
293.15 K, x2 = 0.45	1040.6	1.378
293.15 K, x2 = 0.55	1032.6	1.265
293.15 K, x2 = 0.65	1024.6	1.166
293.15 K, x2 = 0.74	1016.7	1.082
293.15 K, x2 = 0.83	1009	1.019
293.15 K, x2 = 0.92	1001.8	0.962
298.15 K, x2 = 0	1068.2	1.848
298.15 K, x2 = 0.12	1059.7	1.697
298.15 K, x2 = 0.24	1051.9	1.557
298.15 K, x2 = 0.35	1043.9	1.43
298.15 K, x2 = 0.45	1036	1.315
298.15 K, x2 = 0.55	1028	1.212
298.15 K, x2 = 0.65	1020.1	1.125
298.15 K, x2 = 0.74	1012.1	1.05
298.15 K, x2 = 0.83	1004.4	0.9918
298.15 K, x2 = 0.92	996.8	0.943
303.15 K, x2 = 0	1063.4	1.703
303.15 K, x2 = 0.12	1055.2	1.575
303.15 K, x2 = 0.24	1047.3	1.452
303.15 K, x2 = 0.35	1039.4	1.344
303.15 K, x2 = 0.45	1031.5	1.243
303.15 K, x2 = 0.55	1023.5	1.153
303.15 K, x2 = 0.65	1015.4	1.079
303.15 K, x2 = 0.74	1007.4	1.017
303.15 K, x2 = 0.83	999.4	0.97
303.15 K, x2 = 0.92	991.7	0.9255
308.15 K, x2 = 0	1059.1	1.576
308.15 K, x2 = 0.12	1050.9	1.466
308.15 K, x2 = 0.24	1043	1.361
308.15 K, x2 = 0.35	1035	1.264
308.15 K, x2 = 0.45	1027.2	1.175
308.15 K, x2 = 0.55	1019.2	1.099
308.15 K, x2 = 0.65	1011.3	1.036
308.15 K, x2 = 0.74	1003.2	0.9843
308.15 K, x2 = 0.83	995	0.943
308.15 K, x2 = 0.92	986.9	0.9043
313.15 K, x2 = 0	1055.2	1.464
313.15 K, x2 = 0.12	1047.2	1.371
313.15 K, x2 = 0.24	1039.4	1.278
313.15 K, x2 = 0.35	1031.5	1.194
313.15 K, x2 = 0.45	1023.7	1.117
313.15 K, x2 = 0.55	1015.8	1.05
313.15 K, x2 = 0.65	1007.9	0.9955
313.15 K, x2 = 0.74	999.8	0.9504
313.15 K, x2 = 0.83	991.3	0.916
313.15 K, x2 = 0.92	982.8	0.8847

COCOCOCOCOC [2,4,6,8,10-pentaoxaundecane] + COCOCOCOC
Conditions	mass density [kg/m3]	viscosity [mPa·s]
288.15 K, x2 = 0	1078.8	2.207
288.15 K, x2 = 0.12	1074.7	2.085
288.15 K, x2 = 0.24	1070.3	1.982
288.15 K, x2 = 0.35	1065.8	1.899
288.15 K, x2 = 0.45	1061.1	1.83
288.15 K, x2 = 0.55	1056.3	1.769
288.15 K, x2 = 0.65	1051.8	1.707
288.15 K, x2 = 0.74	1047.6	1.642
288.15 K, x2 = 0.83	1043.9	1.553
288.15 K, x2 = 0.86	1042.2	–
288.15 K, x2 = 0.92	1039.9	1.442
288.15 K, x2 = 0.96	1039.1	–
293.15 K, x2 = 0	1073.3	2.015
293.15 K, x2 = 0.12	1069.2	1.895
293.15 K, x2 = 0.24	1065.1	1.798
293.15 K, x2 = 0.35	1061	1.724
293.15 K, x2 = 0.45	1056.7	1.663
293.15 K, x2 = 0.55	1052.2	1.606
293.15 K, x2 = 0.65	1047.5	1.556
293.15 K, x2 = 0.74	1043.1	1.494
293.15 K, x2 = 0.83	1038.9	1.412
293.15 K, x2 = 0.86	1036.6	–
293.15 K, x2 = 0.92	1034.6	1.311
293.15 K, x2 = 0.96	1032.4	–
298.15 K, x2 = 0	1068.2	1.848
298.15 K, x2 = 0.12	1064.2	1.729
298.15 K, x2 = 0.24	1060	1.639
298.15 K, x2 = 0.35	1055.5	1.574
298.15 K, x2 = 0.45	1051.3	1.523
298.15 K, x2 = 0.55	1047.1	1.472
298.15 K, x2 = 0.65	1043.1	1.429
298.15 K, x2 = 0.74	1038.5	1.374
298.15 K, x2 = 0.83	1034.1	1.3
298.15 K, x2 = 0.86	1031.3	–
298.15 K, x2 = 0.92	1029.3	1.21
298.15 K, x2 = 0.96	1026.3	–
303.15 K, x2 = 0	1063.4	1.703
303.15 K, x2 = 0.12	1059.7	1.582
303.15 K, x2 = 0.24	1055.1	1.496
303.15 K, x2 = 0.35	1050.5	1.437
303.15 K, x2 = 0.45	1046.1	1.394
303.15 K, x2 = 0.55	1041.8	1.354
303.15 K, x2 = 0.65	1038	1.319
303.15 K, x2 = 0.74	1033.9	1.273
303.15 K, x2 = 0.83	1029.5	1.217
303.15 K, x2 = 0.86	1026.8	–
303.15 K, x2 = 0.92	1024.2	1.139
303.15 K, x2 = 0.96	1020.7	–
308.15 K, x2 = 0	1059.1	1.576
308.15 K, x2 = 0.12	1055.5	1.448
308.15 K, x2 = 0.24	1050.8	1.366
308.15 K, x2 = 0.35	1046.2	1.313
308.15 K, x2 = 0.45	1041.8	1.28
308.15 K, x2 = 0.55	1037.5	1.248
308.15 K, x2 = 0.65	1033.7	1.23
308.15 K, x2 = 0.74	1029.8	1.192
308.15 K, x2 = 0.83	1025.5	1.149
308.15 K, x2 = 0.86	1022.6	–
308.15 K, x2 = 0.92	1019.8	1.087
308.15 K, x2 = 0.96	1015.6	–
313.15 K, x2 = 0	1055.2	1.464
313.15 K, x2 = 0.12	1051.7	1.331
313.15 K, x2 = 0.24	1047.2	1.252
313.15 K, x2 = 0.35	1042.8	1.207
313.15 K, x2 = 0.45	1038.2	1.18
313.15 K, x2 = 0.55	1034.2	1.155
313.15 K, x2 = 0.65	1030.3	1.143
313.15 K, x2 = 0.74	1026.4	1.121
313.15 K, x2 = 0.83	1022.1	1.092
313.15 K, x2 = 0.86	1018.9	–
313.15 K, x2 = 0.92	1016.2	1.044
313.15 K, x2 = 0.96	1011.6	–
